According to ChEMBL document CHEMBL5346977, “Discovery of Novel d-(+)-Biotin-Conjugated Resorcinol Dibenzyl Ether-Based PD-L1 Inhibitors for Targeted Cancer Immunotherapy” (J Med Chem, 2023):
The source made the active and inactive calls. No cut-off for these calls is given here.

Columns and labels:
[1] = Toxicity in […] with mouse B16-F10 cells assessed as effect on body weight at 50 mg/kg, ip administered once daily for 14 days; type: organism-based; details: in vivo, 336 h, time 14 day
[2] = Toxicity in allogenic BALB/c mouse implanted with mouse B16-F10 cells assessed as severe crypt necrosis in colon at 50 mg/kg, ip by H&E staining based analysis; type: organism-based; details: in vivo
[3] = molecular target: Programmed cell death protein 1/Programmed cell death 1 ligand 1 (Homo sapiens, UniProt Q9NZQ7); assay: Inhibition of GST-tagged PD-1 (unknown origin)/His-tagged PD-L1 (unknown origin) interaction by HTRF binding assay relative to control; type: protein-complex assay
Chain of Programmed cell death protein 1/Programmed cell death 1 ligand 1 (Q15116 whole entry): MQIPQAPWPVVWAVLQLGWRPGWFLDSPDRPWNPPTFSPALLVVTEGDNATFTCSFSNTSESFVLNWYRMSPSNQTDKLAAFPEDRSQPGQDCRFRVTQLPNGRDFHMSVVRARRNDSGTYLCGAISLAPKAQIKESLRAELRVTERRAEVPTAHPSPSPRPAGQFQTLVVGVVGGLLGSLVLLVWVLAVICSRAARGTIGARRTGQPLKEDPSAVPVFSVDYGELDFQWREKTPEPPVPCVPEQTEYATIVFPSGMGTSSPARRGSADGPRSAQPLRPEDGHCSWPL
Chain of Programmed cell death protein 1/Programmed cell death 1 ligand 1 (Q9NZQ7 whole entry): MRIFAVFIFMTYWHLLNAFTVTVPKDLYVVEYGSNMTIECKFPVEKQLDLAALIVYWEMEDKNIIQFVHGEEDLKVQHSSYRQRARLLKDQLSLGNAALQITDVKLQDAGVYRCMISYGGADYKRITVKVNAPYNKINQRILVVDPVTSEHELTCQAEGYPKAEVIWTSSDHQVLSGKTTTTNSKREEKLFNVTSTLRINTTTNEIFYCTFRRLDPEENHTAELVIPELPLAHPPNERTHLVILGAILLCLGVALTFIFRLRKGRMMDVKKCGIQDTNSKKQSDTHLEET

[4] = Drug concentration in tumor of C57BL/6 mouse implanted with mouse B16-F10 cells at 50 mg/kg, ip measured after 1 hrs by UPLC-MS/MS analysis; type: ADME, organism-based, Neoplasm; details: read-out: Ct
[5] = Drug concentration in spleen of C57BL/6 mouse implanted with mouse B16-F10 cells at 50 mg/kg, ip measured after 2 hrs by UPLC-MS/MS analysis; type: ADME, organism-based; details: read-out: Ct
[6] = Drug concentration in brain of C57BL/6 mouse implanted with mouse B16-F10 cells at 50 mg/kg, ip measured after 2 hrs by UPLC-MS/MS analysis; type: ADME, organism-based; details: read-out: Ct
B16-F10 [7] = assay: Antitumor activity against mouse B16-F10 cells implanted in allogenic BALB/c mouse assessed as increase in CXCL10 mRNA level in tumor at 50 mg/kg, ip by qPCR analysis; type: functional, organism-based
[8] = Tmax in Sprague-Dawley rat at 20 mg/kg, po measured after 48 hrs by HPLC-MS/MS analysis; type: ADME, organism-based; details: in vivo
[9] = Drug concentration in brain of C57BL/6 mouse implanted with mouse B16-F10 cells at 50 mg/kg, ip measured after 0.5 hrs by UPLC-MS/MS analysis; type: ADME, organism-based; details: read-out: Ct
[10] = Drug concentration in kidney of C57BL/6 mouse implanted with mouse B16-F10 cells at 50 mg/kg, ip measured after 1 hrs by UPLC-MS/MS analysis; type: ADME, organism-based; details: read-out: Ct
HepG2 [11] = assay: Antitumor activity against human HepG2 cells assessed as reduction in cell viability at 1.1 to 10 uM incubated for 48 hrs by CCK-8 assay; type: functional, cell-based; details: dose 1.1-10 µM
[12] = Initial drug concentration in C57BL/6 mouse at 50 mg/kg, ip measured after 4 hrs by HPLC-MS/MS analysis; type: ADME, organism-based; details: in vivo
[13] = Initial drug concentration in Sprague-Dawley rat at 1 mg/kg, iv administered as single dose and measured after 48 hrs by HPLC-MS/MS analysis; type: ADME, organism-based; details: in vivo
[14] = molecular target: T1, Programmed cell death protein 1/Programmed cell death 1 ligand 1 (Homo sapiens) (UniProt Q15116+Q9NZQ7); assay: Inhibition of GST-tagged PD-1 (unknown origin)/His-tagged PD-L1 (unknown origin) interaction at 10 nM by HTRF binding assay relative to control; type: protein-complex assay
[15] = molecular target: T1, Programmed cell death protein 1/Programmed cell death 1 ligand 1 (Homo sapiens); assay: Inhibition of GST-tagged PD-1 (unknown origin)/His-tagged PD-L1 (unknown origin) interaction at 100 nM by HTRF binding assay relative to control; type: protein-complex assay
[16] = Drug concentration in liver of C57BL/6 mouse implanted with mouse B16-F10 cells at 50 mg/kg, ip measured after 4 hrs by UPLC-MS/MS analysis; type: ADME, organism-based; details: read-out: Ct
HepG2 [17] = assay: Antitumor immunity activity against human HepG2 cells expressing human PD-L1 co-cultured with human Jurkat T cells expressing human PD-1 assessed as reduction in cell viability incubated for 48 hrs by CCK8 assay; type: functional, cell-based; details: dose 1.1-10 µM
[18] = Drug concentration in tumor of C57BL/6 mouse implanted with mouse B16-F10 cells at 50 mg/kg, ip measured after 0.5 hrs by UPLC-MS/MS analysis; type: ADME, organism-based, Neoplasm; details: read-out: Ct
[19] = MRT (0 to infinity) in C57BL/6 mouse at 50 mg/kg, ip measured after 4 hrs by HPLC-MS/MS analysis; type: ADME, organism-based; details: in vivo
[20] = Drug concentration in heart of C57BL/6 mouse implanted with mouse B16-F10 cells at 50 mg/kg, ip measured after 1 hrs by UPLC-MS/MS analysis; type: ADME, organism-based; details: read-out: Ct
[21] = Drug concentration in plasma of C57BL/6 mouse implanted with mouse B16-F10 cells at 50 mg/kg, ip measured after 1 hrs by UPLC-MS/MS analysis; type: ADME, organism-based
B16-F10 [22] = assay: Antitumor activity against mouse B16-F10 cells implanted in allogenic BALB/c mouse assessed as decrease in PD-L1 mRNA level at 50 mg/kg, ip by qPCR analysis; type: functional, organism-based
[23] = Drug concentration in brain of C57BL/6 mouse implanted with mouse B16-F10 cells at 50 mg/kg, ip measured after 4 hrs by UPLC-MS/MS analysis; type: ADME, organism-based; details: read-out: Ct
B16-F10 [24] = assay: Antitumor immunity against mouse B16-F10 cells implanted in allogenic BALB/c mouse assessed as increase in CD3+ CD4+ T cells percentage at 50 mg/kg, ip by flow cytometric analysis; type: functional, organism-based
[25] = Drug concentration in heart of C57BL/6 mouse implanted with mouse B16-F10 cells at 50 mg/kg, ip measured after 4 hrs by UPLC-MS/MS analysis; type: ADME, organism-based; details: read-out: Ct
[26] = Tmax in C57BL/6 mouse at 50 mg/kg, ip measured after 4 hrs by HPLC-MS/MS analysis; type: ADME, organism-based; details: in vivo
[27] = Drug concentration in heart of C57BL/6 mouse implanted with mouse B16-F10 cells at 50 mg/kg, ip measured after 2 hrs by UPLC-MS/MS analysis; type: ADME, organism-based; details: read-out: Ct
[28] = Toxicity in syngeneic C57BL/6 mouse implanted with mouse B16-F10 cells assessed as effect on body weight at 50 mg/kg, ip measured after 12 days; type: organism-based; details: in vivo, 288 h, time 12 day
[29] = Half-life in C57BL/6 mouse at 50 mg/kg, ip measured after 4 hrs by HPLC-MS/MS analysis; type: ADME, organism-based; details: in vivo
[30] = AUC (0 to infinity) in C57BL/6 mouse at 50 mg/kg, ip measured after 4 hrs by HPLC-MS/MS analysis; type: ADME, organism-based; design: dose 50 mg/kg, time 4 hrs, route ip; details: in vivo
[31] = Clearance in Sprague-Dawley rat at 1 mg/kg, iv administered as single dose and measured after 48 hrs by HPLC-MS/MS analysis; type: ADME, organism-based; details: in vivo
[32] = molecular target: Programmed cell death 1 ligand 1 (Mus musculus, UniProt Q9EP73); assay: Binding affinity to mouse PD-L1 assessed as dissociation constant by MST analysis
Chain of Programmed cell death 1 ligand 1 (Q9EP73 whole entry): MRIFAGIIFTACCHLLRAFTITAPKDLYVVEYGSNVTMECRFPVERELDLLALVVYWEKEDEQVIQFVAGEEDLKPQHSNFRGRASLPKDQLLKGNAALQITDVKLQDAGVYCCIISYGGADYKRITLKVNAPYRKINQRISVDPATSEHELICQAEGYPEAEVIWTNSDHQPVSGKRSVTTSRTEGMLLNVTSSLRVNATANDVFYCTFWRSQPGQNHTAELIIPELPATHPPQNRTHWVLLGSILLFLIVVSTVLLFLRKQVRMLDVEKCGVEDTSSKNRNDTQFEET

[33] = Drug concentration in spleen of C57BL/6 mouse implanted with mouse B16-F10 cells at 50 mg/kg, ip measured after 0.5 hrs by UPLC-MS/MS analysis; type: ADME, organism-based; details: read-out: Ct
[34] = Drug concentration in tumor of C57BL/6 mouse implanted with mouse B16-F10 cells at 50 mg/kg, ip measured after 4 hrs by UPLC-MS/MS analysis; type: ADME, organism-based, Neoplasm; details: read-out: Ct
[35] = Drug concentration in spleen of C57BL/6 mouse implanted with mouse B16-F10 cells at 50 mg/kg, ip measured after 1 hrs by UPLC-MS/MS analysis; type: ADME, organism-based; details: read-out: Ct
[36] = MRT (0 to infinity) in Sprague-Dawley rat at 20 mg/kg, po measured after 48 hrs by HPLC-MS/MS analysis; type: ADME, organism-based; details: in vivo

## Cc1c(COc2cc(OCc3cccc(C#N)c3)c(CN3CCCCC3C(=O)NCCNC(=O)CCCC[C@@H]3SC[C@@H]4NC(=O)N[C@@H]43)cc2Cl)cccc1-c1ccccc1 (stereo partly specified)
[1]
  Activity: Non-Toxic
[2]
  Activity: Non-Toxic
[3]
  IC50: 1.8 nM
[4]
  concentration at 1 h: 28.4 ng/mL
[5]
  concentration at 2 h: 7180 ng/mL
[6]
  concentration at 2 h: 4.2 ng/mL
B16-F10 [7]
  Activity: Active
[8]
  Tmax: 3.3 h
[9]
  concentration at 0.5 h: 2.5 ng/mL
[10]
  concentration at 1 h: 219 ng/mL
HepG2 [11]
  Activity: inactive
[12]
  C0: 570.948 ng/mL
[13]
  C0 at 48 h: 257 ng/mL
[14]
  inhibition: 103%
[15]
  inhibition: 104%
[16]
  concentration at 4 h: 3650 ng/mL
HepG2 [17]
  Activity: Dose-Dependent Effect
[18]
  concentration at 0.5 h: 15.5 ng/mL
[19]
  MRT inf: 9.84 h
[20]
  concentration at 1 h: 15.9 ng/mL
[21]
  concentration at 1 h: 1460 ng/mL
B16-F10 [22]
  Activity: Active
[23]
  concentration at 4 h: 4.6 ng/mL
B16-F10 [24]
  Activity: Active
[25]
  concentration at 4 h: 16.3 ng/mL
[26]
  Tmax: 2.4 h
[27]
  concentration at 2 h: 12.4 ng/mL
[28]
  Activity: Non-Toxic
[29]
  t1/2: 14.587 h
[30]
  AUC: 14501.641 µg/L/h
[31]
  clearance: 21.7 mL/min/kg
[32]
  Kd: 438 nM
[33]
  concentration at 0.5 h: 4570 ng/mL
[34]
  concentration at 4 h: 94.2 ng/mL
[35]
  concentration at 1 h: 3470 ng/mL
[36]
  MRT inf: 7.1 h
